# From doi:10.1101/427617v2 (bioRxiv, 2019)
# Key:
# dural lymphatic cells [1] = test: transferrin-AlexaFluor647 uptake, live cell imaging; assay type: cell-based, rat
# dural lymphatic cells [2] = test: pHrodo-dextran uptake, live cell imaging; assay type: cell-based, rat; details: 10kD pHrodo-dextran, Dyngo4a at 100-200μM, Fig. 12B, 12D
Molecule,Uptake of labeled transferrin by lymphatic cells (dural lymphatic cells [1]),Effect of inhibitor on pHrodo dextran uptake (dural lymphatic cells [2]),"Effect of inhibitor on transferrin-AlexaFluor647 uptake (dural lymphatic cells [1]; same concentration (100-200μM), Fig. 12C)"
transferrin-AlexaFluor647: labeled transferrin used to test clathrin-dependent endocytosis,avidly took up,–,–
CCCCC[C@@H](O)[C@H]1C(=O)O[C@H](C)[C@@H](O)/C=C/C=C/C=C/C=C/C=C(\C)[C@@H](O)C[C@H](O)C[C@H](O)C[C@H](O)C[C@H](O)C[C@H](O)C[C@@H]1O [filipin],–,blocked uptake,–
O=C(N/N=C/c1cc(O)c(O)cc1O)c1cc2ccccc2cc1O [Dyngo4a],–,blocked in dose dependent fashion,specifically blocked
